Results reported in publication PMC4844176 (Xenobiotica; the fate of foreign compounds in biological …, 2015).
Values after ≈ are worked out from the molar mass of the structure shown.

Experiments:
[1] = test system: human liver microsomes (HLM); type: in vitro ADME; conditions: pooled HLM; Km not shown
UGT1A1 = biological target: T1, UGT1A1 (Homo sapiens, UniProt P22309); assay: Screening for aprepitant glucuronidation, UGT1A1 Supersomes; type: in vitro ADME; conditions: UGT1A1, 5 and 250 µM aprepitant
T1 sequence (P22309 26-533): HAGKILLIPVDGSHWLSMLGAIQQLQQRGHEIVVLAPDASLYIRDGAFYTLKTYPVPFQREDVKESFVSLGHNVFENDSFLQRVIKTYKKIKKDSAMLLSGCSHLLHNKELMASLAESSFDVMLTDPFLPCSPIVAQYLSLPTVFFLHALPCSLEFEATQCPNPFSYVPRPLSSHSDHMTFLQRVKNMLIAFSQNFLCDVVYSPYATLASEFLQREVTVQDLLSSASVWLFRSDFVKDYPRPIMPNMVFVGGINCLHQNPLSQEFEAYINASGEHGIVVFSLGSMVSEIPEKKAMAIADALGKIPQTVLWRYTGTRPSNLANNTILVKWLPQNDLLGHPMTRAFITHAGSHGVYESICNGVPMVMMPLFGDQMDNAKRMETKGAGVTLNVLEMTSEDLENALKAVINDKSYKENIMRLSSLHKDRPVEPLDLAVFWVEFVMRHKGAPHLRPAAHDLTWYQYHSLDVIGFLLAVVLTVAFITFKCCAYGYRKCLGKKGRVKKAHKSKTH

[2] = test system: human liver microsomes (HLM); type: in vitro ADME; conditions: microsomes from 44 livers, 30 µM aprepitant
UGT2B7 [3] = biological target: T2, UGT2B7 (Homo sapiens, UniProt P16662); assay: Inhibition by aprepitant of UGT2B7; type: in vitro ADME; conditions: UGT2B7 enzyme, pH 7.5, probe 4-MU
T2 sequence (P16662 24-529): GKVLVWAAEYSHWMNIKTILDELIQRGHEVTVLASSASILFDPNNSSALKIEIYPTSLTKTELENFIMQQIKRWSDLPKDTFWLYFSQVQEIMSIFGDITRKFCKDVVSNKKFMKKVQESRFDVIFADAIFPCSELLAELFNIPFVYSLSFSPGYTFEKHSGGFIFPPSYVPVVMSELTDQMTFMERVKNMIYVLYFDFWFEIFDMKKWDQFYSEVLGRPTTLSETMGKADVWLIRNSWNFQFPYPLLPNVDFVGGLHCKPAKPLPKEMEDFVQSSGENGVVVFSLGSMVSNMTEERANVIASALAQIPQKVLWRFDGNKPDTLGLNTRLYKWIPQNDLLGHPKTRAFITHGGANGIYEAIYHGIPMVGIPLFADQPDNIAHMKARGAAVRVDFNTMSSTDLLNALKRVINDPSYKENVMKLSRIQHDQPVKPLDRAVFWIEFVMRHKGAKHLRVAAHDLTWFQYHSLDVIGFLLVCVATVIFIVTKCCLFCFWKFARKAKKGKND

UGT1A7 = biological target: T3, UGT1A7 (Homo sapiens, UniProt Q9HAW7); assay: Inhibition by aprepitant of UGT1A7; type: in vitro ADME; conditions: UGT1A7 enzyme, pH 7.5, probe 4-MU
T3 sequence (Q9HAW7 26-530): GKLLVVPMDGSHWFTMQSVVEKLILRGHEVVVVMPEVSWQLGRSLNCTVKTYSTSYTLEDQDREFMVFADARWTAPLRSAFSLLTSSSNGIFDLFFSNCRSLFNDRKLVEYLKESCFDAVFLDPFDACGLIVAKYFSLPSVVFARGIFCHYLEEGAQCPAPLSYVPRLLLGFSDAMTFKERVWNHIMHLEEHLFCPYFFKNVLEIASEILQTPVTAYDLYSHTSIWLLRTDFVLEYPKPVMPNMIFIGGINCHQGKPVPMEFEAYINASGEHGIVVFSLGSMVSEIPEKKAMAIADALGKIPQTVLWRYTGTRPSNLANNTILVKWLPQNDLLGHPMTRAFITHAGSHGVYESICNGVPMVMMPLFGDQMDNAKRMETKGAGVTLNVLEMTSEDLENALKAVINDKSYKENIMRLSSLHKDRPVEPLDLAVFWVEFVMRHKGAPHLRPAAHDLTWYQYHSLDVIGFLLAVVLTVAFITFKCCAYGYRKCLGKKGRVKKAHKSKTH

UGT2B17 = biological target: T4, UGT2B17 (Homo sapiens, UniProt O75795); assay: Inhibition by aprepitant of UGT2B17; type: in vitro ADME; conditions: UGT2B17 enzyme, pH 7.5, probe 4-MU
T4 sequence (O75795 24-530): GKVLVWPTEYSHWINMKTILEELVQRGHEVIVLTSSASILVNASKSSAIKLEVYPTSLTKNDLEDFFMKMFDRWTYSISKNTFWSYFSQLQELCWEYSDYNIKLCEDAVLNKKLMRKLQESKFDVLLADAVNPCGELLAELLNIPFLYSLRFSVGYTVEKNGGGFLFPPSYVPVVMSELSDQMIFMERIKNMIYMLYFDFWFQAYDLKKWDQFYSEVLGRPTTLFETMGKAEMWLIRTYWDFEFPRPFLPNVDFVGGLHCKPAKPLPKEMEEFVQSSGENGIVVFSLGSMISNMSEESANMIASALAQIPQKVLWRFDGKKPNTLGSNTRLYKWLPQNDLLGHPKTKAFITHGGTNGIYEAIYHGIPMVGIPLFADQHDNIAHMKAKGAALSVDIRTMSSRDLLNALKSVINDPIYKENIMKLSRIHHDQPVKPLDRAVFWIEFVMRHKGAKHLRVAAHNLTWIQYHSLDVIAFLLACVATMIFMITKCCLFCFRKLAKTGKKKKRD

[4] = Aqueous solubility of aprepitant; type: physicochemical; conditions: aqueous medium
[5] = ref Merck 2003; cited from earlier work
UGT2B7 [6] = biological target: T2, UGT2B7; assay: Ki determination of aprepitant on 4-MU-G, M-6-G and AZT-G formation in UGT2B7

Question: Which “shape of velocity curve (kinetics)” value [1] does the source give for `C[C@@H](O[C@H]1OCCN(Cc2n[nH]c(=O)[nH]2)[C@H]1c1ccc(F)cc1)c1cc(C(F)(F)F)cc(C(F)(F)F)c1` [aprepitant, Aprepitant] here?
Answer: biphasic shape

Question: What about the AP-G formation (UGT1A1) of the same compound?
Answer: not detected

Question: What about the “variation of glucuronidation activity between livers” value [2] of the same compound?
Answer: approximately 2 fold

Question: What about the inhibition at 1 µM (UGT2B7 [3]) of the same compound?
Answer: ~17%

Question: What about the inhibition at 10 µM (UGT2B7 [3]) of the same compound?
Answer: 70%

Question: And the inhibition at 10 µM (UGT1A7)?
Answer: 17%

Question: And the inhibition at 10 µM (UGT2B17)?
Answer: 10%

Question: What about the solubility [4] of the same compound?
Answer: ~250 µM (≈ 134 µg/mL)

Question: And the “mean absolute oral bioavailability” value [5]?
Answer: 60–65%

Question: And the inhibition model (UGT2B7 [6]; UGT2B7, substrate 4-MU)?
Answer: competitive inhibition model

Question: What about the inhibition model (UGT2B7 [6]; UGT2B7, substrate AZT) of the same compound?
Answer: competitive inhibition model

Question: And the inhibition model (UGT2B7 [6]; UGT2B7, substrate morphine)?
Answer: noncompetitive model
